Data taken from ChEMBL document CHEMBL1201862, “PubChem BioAssay data set” (2004).
Values joined by “and” are separate entries in the source; they are usually repeats but may differ in a detail not shown here. Equal entries are not always repeated. Active and inactive are the calls of the source.

What was measured:
[1] = HepG2 cell cytotoxicity, dose response, cytotoxicity control, ATP luminescence, cherry-pick, set 6 (AID 1053125); assay type: functional, cell-based
cells [2] = details: A549
cells [3] = details: HEK293
[4] = A Cell-Based Confirmatory Screen for Compounds that Inhibit VEEV, TC-83 (5).; assay type: functional
[5] = A Cell-Based Confirmatory Screen for Compounds that Inhibit VEEV TC-83 (4).; assay type: functional
[6] = A Cell-Based Confirmatory Screen for Compounds that Inhibit VEEV, TC-83 (8).; assay type: functional
[7] = target: Metabotropic glutamate receptor 5 (Rattus norvegicus, UniProt P31424); assay: Identification of a glycine sulfonamide based non-MPEP site positive allosteric potentiator (PAM) of mGlu5 (calcium_assay).; assay type: functional
[8] = target: T1, Oxysterols receptor LXR-beta (Homo sapiens, UniProt P55055); assay type: functional, cell-based;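 also: agonist activity at LXR measured by a cell-based luminescence readout across a dose range, run as a counterscreen for daf-12 agonists; HEK293 cells with Gal4-LXR fusion and GAL4-driven luciferase reporter; potency for activation of Gal4-LXR reporter so compounds are agonists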
T1 sequence (P55055 whole entry): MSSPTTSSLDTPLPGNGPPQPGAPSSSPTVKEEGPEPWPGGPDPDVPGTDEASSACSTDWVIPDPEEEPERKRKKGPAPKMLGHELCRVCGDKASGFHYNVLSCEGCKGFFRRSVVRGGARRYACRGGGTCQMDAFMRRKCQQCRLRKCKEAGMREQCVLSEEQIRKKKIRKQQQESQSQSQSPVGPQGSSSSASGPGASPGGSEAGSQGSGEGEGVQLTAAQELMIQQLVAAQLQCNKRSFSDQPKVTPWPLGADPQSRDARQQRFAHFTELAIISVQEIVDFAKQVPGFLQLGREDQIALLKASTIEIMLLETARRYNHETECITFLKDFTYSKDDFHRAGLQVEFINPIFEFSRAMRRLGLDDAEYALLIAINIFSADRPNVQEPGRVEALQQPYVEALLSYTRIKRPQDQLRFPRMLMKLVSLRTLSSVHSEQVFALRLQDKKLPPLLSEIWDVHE

[9] = inhibitors of HIV Env-driven cell fusion, dose response, cherry-pick (AID 652057); assay type: functional, cell-based
[10] = CEM21 cell cytotoxicity, dose response, cytotoxicity control, plate reader, dry powder (AID 687026); assay type: functional, cell-based
[11] = inhibitors of clade B AD8 Env fusion, dose response, cell-based, cherry-pick (AID 652062); assay type: functional;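 also: luciferase signal from cell-cell fusion driven by HIV-1 clade B AD8 Env; potency is for inhibitors of fusion seen as a drop in luminescence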
[12] = target: Beta-2 adrenergic receptor (Homo sapiens, UniProt P07550); assay: beta2AR agonists driving receptor internalization, dose response, cell-based, FAP fluorogen, flow cytometry, cherry pick 1 (AID 588763); assay type: functional
[13] = ZM109 Env clade C HIV-1 fusion inhibitors, dose response, HeLa effector, CEM target cells, luciferase, cherry-pick (AID 652058); assay type: functional, cell-based
[14] = off-target signal loss in HeLa-CEM21 co-culture – HeLa F-luc CTL cells, cherry-picked, counter-screen for HIV-1 Env fusion inhibitor project, dose response (AID 652040); assay type: functional, cell-based;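 also: potency for signal decrease marking cytotoxic or nonspecific inhibition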
cells [15] = assay: cells
Major prion protein = Major prion protein (Homo sapiens, UniProt P04156); assay type: functional, cell-based
[16] = target: T2, DNA repair protein RAD52 homolog (Homo sapiens, UniProt P43351); assay type: functional, biochemical
T2 sequence (P43351 whole entry): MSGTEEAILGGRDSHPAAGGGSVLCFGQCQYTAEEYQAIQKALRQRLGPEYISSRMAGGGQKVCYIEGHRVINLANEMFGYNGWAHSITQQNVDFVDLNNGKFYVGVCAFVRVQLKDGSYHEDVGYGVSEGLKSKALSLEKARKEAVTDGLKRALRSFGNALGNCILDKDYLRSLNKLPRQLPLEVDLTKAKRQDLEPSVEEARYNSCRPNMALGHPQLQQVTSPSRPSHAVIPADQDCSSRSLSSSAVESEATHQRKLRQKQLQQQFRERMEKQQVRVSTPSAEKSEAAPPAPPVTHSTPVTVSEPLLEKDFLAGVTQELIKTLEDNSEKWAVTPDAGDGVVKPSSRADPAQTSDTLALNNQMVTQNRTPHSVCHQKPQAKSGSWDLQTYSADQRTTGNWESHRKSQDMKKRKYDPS

[17] = miR-122 activators in hepatoma reporter cells, dose response, cell-based, Huh7 psiCHECK-miR122, Renilla luciferase, cherry-picked (AID 651956); assay type: functional;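 also: huh7 hepatoma cells stably carrying a psiCHECK-2 miR-122 sensor plasmid; renilla luciferase signal reporting endogenous miR-122 activity after 48 h compound exposure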
[18] = HEp-2 cell cytotoxicity, dose response, cytotoxicity control for RSV inhibitor project, HTS (AID 2410); assay type: functional; details: human respiratory syncytial virus
[19] = target: T3, Microphthalmia-associated transcription factor (Homo sapiens, UniProt O75030); assay: TRPM1 promoter luciferase signal decrease, dose response, MITF inhibitor project, cell-based, SK-MEL-5, cherry-picked, set 3 (AID 493073); assay type: functional
T3 sequence (O75030 whole entry): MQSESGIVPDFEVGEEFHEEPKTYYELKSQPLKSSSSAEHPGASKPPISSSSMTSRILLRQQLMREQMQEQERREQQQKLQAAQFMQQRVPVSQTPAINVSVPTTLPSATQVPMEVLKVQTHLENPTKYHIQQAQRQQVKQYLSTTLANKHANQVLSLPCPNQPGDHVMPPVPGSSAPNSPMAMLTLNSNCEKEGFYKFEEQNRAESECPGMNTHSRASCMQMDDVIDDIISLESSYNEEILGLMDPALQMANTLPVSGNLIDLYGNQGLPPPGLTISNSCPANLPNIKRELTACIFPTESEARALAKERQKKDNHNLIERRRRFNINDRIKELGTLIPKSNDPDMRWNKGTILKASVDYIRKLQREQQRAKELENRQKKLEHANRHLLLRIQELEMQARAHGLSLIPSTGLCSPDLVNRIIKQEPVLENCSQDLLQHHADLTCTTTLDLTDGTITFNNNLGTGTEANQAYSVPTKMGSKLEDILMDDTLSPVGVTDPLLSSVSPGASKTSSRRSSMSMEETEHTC

A-375 = assay: A375 melanoma cell viability reduction, dose response, counter-screen for MITF modulator project, cherry-pick samples, set 2 (AID 540335); assay type: functional, cell-based; details: Homo sapiens
HEK293 [20] = assay: optical interference in Abeta FP readout, dose response, artefact control for IDE activator project, biochemical, fluorescence polarization (AID 588442); assay type: functional, cell-based; details: Homo sapiens
[21] = HEK293T cytotoxicity, dose response, cytotoxicity control for miR-122 modulator project, cell-based, inhibitor set, cherry-pick, set 2 (AID 720697); assay type: functional
Insulin-degrading enzyme [22] = target: T4, Insulin-degrading enzyme (Homo sapiens, UniProt P14735); assay: activators of recombinant IDE enzyme, dose response, counter-screen for IDE activator project, biochemical, fluorescence polarization (AID 588681)
T4 sequence (P14735 whole entry): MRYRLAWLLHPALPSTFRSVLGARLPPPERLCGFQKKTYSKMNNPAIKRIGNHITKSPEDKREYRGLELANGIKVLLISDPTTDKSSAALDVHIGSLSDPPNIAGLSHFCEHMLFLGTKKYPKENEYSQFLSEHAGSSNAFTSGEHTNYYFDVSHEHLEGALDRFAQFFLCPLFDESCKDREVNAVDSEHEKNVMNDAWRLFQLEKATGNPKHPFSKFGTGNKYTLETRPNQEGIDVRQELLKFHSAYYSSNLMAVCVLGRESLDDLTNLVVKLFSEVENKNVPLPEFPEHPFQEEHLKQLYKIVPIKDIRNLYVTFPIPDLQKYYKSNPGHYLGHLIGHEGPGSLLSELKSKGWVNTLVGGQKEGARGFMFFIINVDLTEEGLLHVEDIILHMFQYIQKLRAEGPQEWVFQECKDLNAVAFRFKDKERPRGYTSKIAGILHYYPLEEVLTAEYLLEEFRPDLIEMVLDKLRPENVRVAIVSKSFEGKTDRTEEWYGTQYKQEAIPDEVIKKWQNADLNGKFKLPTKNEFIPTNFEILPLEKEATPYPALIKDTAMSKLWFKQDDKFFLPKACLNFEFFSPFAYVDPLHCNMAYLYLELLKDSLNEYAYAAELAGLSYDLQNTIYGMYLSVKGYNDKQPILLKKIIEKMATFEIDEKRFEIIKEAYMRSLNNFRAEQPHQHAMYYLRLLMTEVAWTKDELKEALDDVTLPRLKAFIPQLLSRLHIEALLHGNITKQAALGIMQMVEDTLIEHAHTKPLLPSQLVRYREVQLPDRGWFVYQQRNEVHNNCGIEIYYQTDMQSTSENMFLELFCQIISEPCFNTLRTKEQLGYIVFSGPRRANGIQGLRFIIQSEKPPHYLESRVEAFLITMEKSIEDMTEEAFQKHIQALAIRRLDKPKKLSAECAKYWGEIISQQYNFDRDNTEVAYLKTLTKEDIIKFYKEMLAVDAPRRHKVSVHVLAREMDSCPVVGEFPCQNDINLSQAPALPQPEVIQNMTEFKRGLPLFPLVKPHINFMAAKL

Insulin-degrading enzyme [23] = target: T4, Insulin-degrading enzyme; assay: activators of endogenous IDE in HEK cells, dose response, cell-based, fluorescence polarization (AID 588439); assay type: functional
HEK293 [24] = assay: HEK cell cytotoxicity by LDH release, dose response, cytotoxicity control for IDE activator project, fluorescence, HEK cells (AID 588440); assay type: functional, cell-based; details: Homo sapiens;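 also: cytotoxicity by LDH release measuring loss of membrane integrity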
Melanocortin receptor 4 = Melanocortin receptor 4 (Homo sapiens, UniProt P32245); assay type: functional, cell-based;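 also: Cell-based assay with luminescence read-out, confirmatory dose-response testing for agonist activity of biased ligands at MC4R; human U2OS cells with tagged receptor and beta-arrestin; potency of agonists that increase receptor coupling to beta-arrestin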
[25] = HEK293T cytotoxicity, dose response, cytotoxicity control for miR-122 modulator project, cell-based, activator set, cherry-pick (AID 720690); assay type: functional;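 also: HEK293T human cells scored for general mammalian cytotoxicity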
[26] = target: Metabotropic glutamate receptor 3 (Rattus norvegicus, UniProt P31422); assay: mGlu3 negative allosteric modulator potency, dose response, HEK/GIRK cells, thallium flux, rat (AID 651839); assay type: functional
HEK293 [27] = assay: HEK293T cell cytotoxicity, dose response, cytotoxicity control, ATP luminescence, cherry-pick samples (AID 687005); assay type: functional, cell-based; details: Homo sapiens;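 also: cells exposed to compound for 48 hours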
[28] = HEK293 Cytotoxicity Assay Measured in Cell-Based System Using Plate Reader - 7071-01_Inhibitor_Dose_CherryPick_Activity_Set2.; assay type: functional
[29] = NIH:OVCAR-3 ovarian cancer cell cytotoxicity, dose response, PAX8 inhibitor project, plate reader, dry powder samples (AID 743044); assay type: functional, cell-based
[30] = cytotoxicity in OVCAR8 ovarian cancer cells, dose response, PAX8 project, cell-based, plate reader, dry powder samples (AID 743197); assay type: functional; details: OVCAR-8
[31] = A2780 ovarian cancer cell cytotoxicity, dose response, cytotoxicity control, plate reader, dry powder samples (AID 743046); assay type: functional, cell-based
[32] = IGROV1 ovarian cancer cell cytotoxicity, dose response, PAX8 inhibitor project, plate reader, dry powder samples (AID 743043); assay type: functional, cell-based; details: IGROV-1
Paired box protein Pax-8 = Paired box protein Pax-8 (Homo sapiens, UniProt Q06710); assay: inhibitors of PAX8-driven TPO luciferase reporter, dose response, RMG-I cells, cherry-pick (AID 687027); assay type: functional, cell-based;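 also: luciferase reporter driven by Pax8 target thyroperoxidase promoter measured by SteadyGlo luminescence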
[33] = IOSE-T80 ovarian epithelial cell cytotoxicity, dose response, cytotoxicity control for PAX8 inhibitor project, plate reader, dry powder samples (AID 743045); assay type: functional, cell-based

O=c1oc2cc(O)ccc2cc1-c1nc2ccccc2o1
AC50 [1]: > 52 µM (inactive)
AC50 (cells [2]): > 52 µM (inactive)
AC50 (cells [3]): 26.6 µM (active)

O=c1c2cc([N+](=O)[O-])ccc2nc(CN2CCNCC2)n1-c1ccccc1F
IC50 [4]: < 0.23 µM (active)
IC50 [5]: 0.073 µM (active)
IC50 [6]: < 0.198 µM (active)

O=S(=O)(c1ccc(C#Cc2cccc(F)c2)cc1)N1CCOCC1
EC50 [7]: 0.427 µM

Nc1ncc(Br)cc1/N=C/c1ccccc1
EC50 [8]: > 67.5 µM (inactive)

O=C(CCc1ccc(S(=O)(=O)N2CCOCC2)cc1)Nc1nc(COc2ccccc2)cs1
AC50 [9]: 1.65 µM (active)
AC50 [10]: > 70 µM (inactive) and 50.5 µM (active)
AC50 [11]: 4.58 µM (active)
EC50 [12]: 1.4 µM (active)
AC50 [13]: 1.07 µM (active)
AC50 [14]: > 70 µM (inactive)

CCOC(=O)CSc1nc(Cc2ccccc2)nc2ccccc12
IC50 (cells [15]): > 138 µM (inactive)
IC50 (Major prion protein): 4.31 µM (active)

COc1cccc2sc(N(CCCN(C)C)C(=O)C(c3ccccc3)c3ccccc3)nc12
AC50 [16]: 13.3 µM (active)
AC50 [17]: 8.07 µM (active)
CC50 [18]: 13.6 µM (active)
AC50 [19]: 15.1 µM (active)
AC50 (A-375): 18.3 µM (active)
EC50 (HEK293 [20]): > 54.7 µM (inactive)
AC50 [21]: 1.77 µM (active)
EC50 (Insulin-degrading enzyme [22]): > 54.7 µM (inactive)
EC50 (Insulin-degrading enzyme [23]): 15.1 µM (inactive)
IC50 (HEK293 [24]): 10.2 µM (inactive)
EC50 (Melanocortin receptor 4): > 89.2 µM (inactive)
AC50 [25]: 16.2 µM (active)

COc1ccc(OC)c(-c2ccc3cc(C(=O)N4CCCC(CO)C4)ccc3c2)c1 (configuration not stated)
IC50 [26]: 9.16 µM (active)

Cc1noc(C)c1NC(=O)N(C)C[C@@H]1Oc2ccc(NC(=O)NC(C)C)cc2CC(=O)N([C@H](C)CO)C[C@H]1C
AC50 (HEK293 [27]): 1.61 µM (active)
AC50 [28]: 1.61 µM (active)

Cc1ccc(S(=O)(=O)N(C)C[C@@H]2Oc3ccc(NC(=O)Nc4ccc(C(F)(F)F)cc4)cc3CC(=O)N([C@H](C)CO)C[C@@H]2C)cc1
AC50 [29]: 3.11 µM (active)
AC50 [30]: 14.3 µM (active)
AC50 [31]: 20.7 µM (active)
AC50 [32]: 10.1 µM (active)
AC50 (Paired box protein Pax-8): 3.06 µM (active)
AC50 [33]: 9.76 µM (active)
